Activity data for two compounds are collected here from ChEMBL document CHEMBL5678818, “Discovery of potent SOS1 inhibitors that block RAS activation via disruption of the RAS-SOS1 interaction” (Proc Natl Acad Sci U S A, 2019).

Assay [1] deals with RAC-beta serine/threonine-protein kinase (Homo sapiens) (UniProt P31751). Briefly: Inhibition of AKT2 (unknown origin) assessed as residual activity at 1000 nM by KINOMEscan analysis relative to control.
Assay [2] addresses LIM domain kinase 1 (Homo sapiens) (UniProt P53667). Description: Inhibition of LIMK1 (unknown origin) assessed as residual activity at 1000 nM by KINOMEscan analysis relative to control.
In assay [3] the target is Serine/threonine-protein kinase MARK1 (Homo sapiens) (UniProt Q9P0L2). Description: Inhibition of MARK1 (unknown origin) assessed as residual activity at 1000 nM by KINOMEscan analysis relative to control.
Sequence of Serine/threonine-protein kinase MARK1 (Homo sapiens) (Q9P0L2 whole entry, looked up): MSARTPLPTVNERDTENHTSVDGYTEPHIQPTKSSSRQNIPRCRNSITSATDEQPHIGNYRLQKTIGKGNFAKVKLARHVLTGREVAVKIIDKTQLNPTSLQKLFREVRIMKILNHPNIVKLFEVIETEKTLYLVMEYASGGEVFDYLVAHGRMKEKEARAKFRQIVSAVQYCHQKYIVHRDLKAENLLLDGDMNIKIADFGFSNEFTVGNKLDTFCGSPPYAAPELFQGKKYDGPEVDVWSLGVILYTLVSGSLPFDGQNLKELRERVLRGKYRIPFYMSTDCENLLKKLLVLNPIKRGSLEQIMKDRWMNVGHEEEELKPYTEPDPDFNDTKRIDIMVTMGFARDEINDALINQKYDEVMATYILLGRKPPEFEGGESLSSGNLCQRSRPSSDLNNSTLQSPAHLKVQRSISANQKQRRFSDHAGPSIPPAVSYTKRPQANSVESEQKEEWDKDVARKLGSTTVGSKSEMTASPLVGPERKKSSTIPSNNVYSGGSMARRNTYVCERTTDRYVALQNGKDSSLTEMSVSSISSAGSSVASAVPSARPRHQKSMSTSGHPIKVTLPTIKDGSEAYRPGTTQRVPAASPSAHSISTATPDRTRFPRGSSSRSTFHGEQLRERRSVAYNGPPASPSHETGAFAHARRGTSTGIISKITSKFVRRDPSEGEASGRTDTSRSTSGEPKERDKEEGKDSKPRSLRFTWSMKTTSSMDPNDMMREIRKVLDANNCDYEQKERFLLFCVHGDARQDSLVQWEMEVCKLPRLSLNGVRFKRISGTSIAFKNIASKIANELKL
Assay [4] has as its target Mitogen-activated protein kinase kinase kinase 9 (Homo sapiens) (UniProt P80192). Briefly: Inhibition of MLK1 (unknown origin) assessed as residual activity at 1000 nM by KINOMEscan analysis relative to control.
The target of assay [5] is Cyclin-dependent kinase 16 (Homo sapiens) (UniProt Q00536). Briefly: Inhibition of PCTK1 (unknown origin) assessed as residual activity at 1000 nM by KINOMEscan analysis relative to control.
Sequence of Cyclin-dependent kinase 16 (Homo sapiens) (Q00536 whole entry): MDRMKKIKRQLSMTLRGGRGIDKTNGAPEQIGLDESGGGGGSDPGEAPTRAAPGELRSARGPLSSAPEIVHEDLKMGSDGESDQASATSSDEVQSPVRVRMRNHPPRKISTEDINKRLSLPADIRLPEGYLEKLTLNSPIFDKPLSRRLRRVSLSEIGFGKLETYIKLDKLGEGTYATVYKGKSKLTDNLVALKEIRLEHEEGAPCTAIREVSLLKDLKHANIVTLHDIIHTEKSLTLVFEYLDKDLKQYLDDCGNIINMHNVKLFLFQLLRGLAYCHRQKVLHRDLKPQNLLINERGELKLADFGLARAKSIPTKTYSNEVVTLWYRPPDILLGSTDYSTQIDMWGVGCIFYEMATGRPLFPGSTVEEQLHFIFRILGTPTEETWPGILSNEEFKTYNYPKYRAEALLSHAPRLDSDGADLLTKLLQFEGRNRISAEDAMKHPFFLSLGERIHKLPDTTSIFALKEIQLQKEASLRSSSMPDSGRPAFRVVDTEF
In assay [6] the target is Serine/threonine-protein kinase N2 (Homo sapiens) (UniProt Q16513). Briefly: Inhibition of PKN2 (unknown origin) assessed as residual activity at 1000 nM by KINOMEscan analysis relative to control.
Sequence of Serine/threonine-protein kinase N2 (Homo sapiens) (Q16513 whole entry, looked up): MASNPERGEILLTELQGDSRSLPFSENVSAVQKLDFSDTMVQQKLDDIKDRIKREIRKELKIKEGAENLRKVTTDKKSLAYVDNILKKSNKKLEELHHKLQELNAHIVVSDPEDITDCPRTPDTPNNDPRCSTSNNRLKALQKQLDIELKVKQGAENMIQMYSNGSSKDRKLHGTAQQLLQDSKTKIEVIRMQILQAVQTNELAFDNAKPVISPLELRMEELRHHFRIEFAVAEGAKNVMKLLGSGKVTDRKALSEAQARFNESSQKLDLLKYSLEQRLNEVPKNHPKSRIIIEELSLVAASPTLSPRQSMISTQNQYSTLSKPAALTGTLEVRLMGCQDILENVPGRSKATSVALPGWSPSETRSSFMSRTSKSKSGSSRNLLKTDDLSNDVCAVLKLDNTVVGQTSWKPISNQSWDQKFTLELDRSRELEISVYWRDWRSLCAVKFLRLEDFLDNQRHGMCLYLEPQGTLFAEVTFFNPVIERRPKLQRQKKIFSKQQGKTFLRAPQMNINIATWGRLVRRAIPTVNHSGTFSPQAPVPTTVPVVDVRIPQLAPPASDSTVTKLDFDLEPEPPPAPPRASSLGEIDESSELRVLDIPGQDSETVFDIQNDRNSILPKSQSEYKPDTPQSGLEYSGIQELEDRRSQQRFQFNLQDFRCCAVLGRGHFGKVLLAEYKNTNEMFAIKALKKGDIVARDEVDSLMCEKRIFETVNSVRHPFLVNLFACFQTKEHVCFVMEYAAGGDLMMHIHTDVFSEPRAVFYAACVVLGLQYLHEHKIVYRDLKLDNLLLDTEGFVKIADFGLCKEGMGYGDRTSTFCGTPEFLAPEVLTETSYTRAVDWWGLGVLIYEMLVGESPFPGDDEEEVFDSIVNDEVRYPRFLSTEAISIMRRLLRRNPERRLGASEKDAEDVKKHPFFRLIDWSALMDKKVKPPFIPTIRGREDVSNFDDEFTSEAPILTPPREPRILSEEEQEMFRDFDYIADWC
For assay [7], the target named is Protein-tyrosine kinase 2-beta (Homo sapiens) (UniProt Q14289). Briefly: Inhibition of PYK2 (unknown origin) assessed as residual activity at 1000 nM by KINOMEscan analysis relative to control.
Sequence of Protein-tyrosine kinase 2-beta (Homo sapiens) (Q14289 whole entry, looked up): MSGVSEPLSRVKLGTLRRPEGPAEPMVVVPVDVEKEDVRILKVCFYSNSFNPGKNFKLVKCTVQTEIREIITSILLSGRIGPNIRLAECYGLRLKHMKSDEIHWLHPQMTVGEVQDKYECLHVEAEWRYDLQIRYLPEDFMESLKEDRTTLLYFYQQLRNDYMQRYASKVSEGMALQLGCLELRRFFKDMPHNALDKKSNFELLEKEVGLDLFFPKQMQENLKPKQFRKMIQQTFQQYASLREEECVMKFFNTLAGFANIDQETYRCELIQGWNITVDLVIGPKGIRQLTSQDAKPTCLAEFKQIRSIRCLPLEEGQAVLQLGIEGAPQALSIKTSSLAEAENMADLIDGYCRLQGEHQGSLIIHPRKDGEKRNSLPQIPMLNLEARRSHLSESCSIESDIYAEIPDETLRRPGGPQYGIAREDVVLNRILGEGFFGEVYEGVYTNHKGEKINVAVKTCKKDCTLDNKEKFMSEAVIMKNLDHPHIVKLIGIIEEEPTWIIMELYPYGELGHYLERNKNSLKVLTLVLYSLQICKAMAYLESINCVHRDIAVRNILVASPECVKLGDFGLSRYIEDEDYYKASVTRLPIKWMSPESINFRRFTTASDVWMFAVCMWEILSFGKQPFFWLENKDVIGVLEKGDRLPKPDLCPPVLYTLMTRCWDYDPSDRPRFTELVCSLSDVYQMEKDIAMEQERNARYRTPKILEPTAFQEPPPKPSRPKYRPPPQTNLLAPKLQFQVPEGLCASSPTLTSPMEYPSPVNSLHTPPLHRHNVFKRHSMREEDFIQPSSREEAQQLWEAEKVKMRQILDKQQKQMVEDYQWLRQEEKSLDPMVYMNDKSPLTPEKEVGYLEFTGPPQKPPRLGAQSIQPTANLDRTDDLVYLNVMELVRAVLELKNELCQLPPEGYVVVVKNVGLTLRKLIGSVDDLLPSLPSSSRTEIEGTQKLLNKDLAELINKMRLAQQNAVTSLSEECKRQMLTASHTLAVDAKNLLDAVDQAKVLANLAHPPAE
In assay [8] the target is T1, Serine/threonine-protein kinase 36 (Homo sapiens) (UniProt Q9NRP7).
T1 sequence (whole entry): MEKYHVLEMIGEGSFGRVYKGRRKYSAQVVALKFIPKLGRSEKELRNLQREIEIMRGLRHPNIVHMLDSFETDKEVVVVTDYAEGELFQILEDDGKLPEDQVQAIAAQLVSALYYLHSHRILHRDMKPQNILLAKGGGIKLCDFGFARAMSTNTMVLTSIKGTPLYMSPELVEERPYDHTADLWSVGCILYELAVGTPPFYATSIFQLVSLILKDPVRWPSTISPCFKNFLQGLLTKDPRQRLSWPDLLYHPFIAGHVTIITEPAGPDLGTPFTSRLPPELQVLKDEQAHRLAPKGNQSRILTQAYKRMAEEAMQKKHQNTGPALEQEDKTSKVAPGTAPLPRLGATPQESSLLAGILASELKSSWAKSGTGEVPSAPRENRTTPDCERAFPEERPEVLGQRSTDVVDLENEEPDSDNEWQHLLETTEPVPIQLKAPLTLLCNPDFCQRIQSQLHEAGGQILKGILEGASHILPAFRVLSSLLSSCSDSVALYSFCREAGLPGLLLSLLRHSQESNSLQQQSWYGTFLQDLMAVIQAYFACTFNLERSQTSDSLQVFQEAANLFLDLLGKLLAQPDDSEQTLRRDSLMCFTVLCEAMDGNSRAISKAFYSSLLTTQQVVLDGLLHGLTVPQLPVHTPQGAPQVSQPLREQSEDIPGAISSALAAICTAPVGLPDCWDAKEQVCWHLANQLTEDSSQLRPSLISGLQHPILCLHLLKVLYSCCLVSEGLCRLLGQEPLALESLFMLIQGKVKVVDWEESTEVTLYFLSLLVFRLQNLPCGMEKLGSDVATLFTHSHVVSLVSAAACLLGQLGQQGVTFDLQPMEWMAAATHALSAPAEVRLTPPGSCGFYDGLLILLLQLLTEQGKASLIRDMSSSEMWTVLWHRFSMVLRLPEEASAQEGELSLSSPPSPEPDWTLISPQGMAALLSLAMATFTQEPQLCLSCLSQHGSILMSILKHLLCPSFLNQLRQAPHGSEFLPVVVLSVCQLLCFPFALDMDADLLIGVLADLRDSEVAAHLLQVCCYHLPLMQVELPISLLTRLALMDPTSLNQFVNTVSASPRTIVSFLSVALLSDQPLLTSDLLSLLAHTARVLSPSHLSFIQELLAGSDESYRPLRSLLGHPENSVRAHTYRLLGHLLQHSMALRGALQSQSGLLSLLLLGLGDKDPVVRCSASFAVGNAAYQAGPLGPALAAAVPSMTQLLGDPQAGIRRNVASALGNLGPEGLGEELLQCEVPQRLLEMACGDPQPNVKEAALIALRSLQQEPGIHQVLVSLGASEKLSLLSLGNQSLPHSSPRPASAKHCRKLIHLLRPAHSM
Briefly: Inhibition of STK36 (unknown origin) assessed as residual activity at 1000 nM by KINOMEscan analysis relative to control.

For assay [9], the target named is T2, Serine/threonine-protein kinase TAO1 (Homo sapiens) (UniProt Q7L7X3).
T2 sequence (whole entry): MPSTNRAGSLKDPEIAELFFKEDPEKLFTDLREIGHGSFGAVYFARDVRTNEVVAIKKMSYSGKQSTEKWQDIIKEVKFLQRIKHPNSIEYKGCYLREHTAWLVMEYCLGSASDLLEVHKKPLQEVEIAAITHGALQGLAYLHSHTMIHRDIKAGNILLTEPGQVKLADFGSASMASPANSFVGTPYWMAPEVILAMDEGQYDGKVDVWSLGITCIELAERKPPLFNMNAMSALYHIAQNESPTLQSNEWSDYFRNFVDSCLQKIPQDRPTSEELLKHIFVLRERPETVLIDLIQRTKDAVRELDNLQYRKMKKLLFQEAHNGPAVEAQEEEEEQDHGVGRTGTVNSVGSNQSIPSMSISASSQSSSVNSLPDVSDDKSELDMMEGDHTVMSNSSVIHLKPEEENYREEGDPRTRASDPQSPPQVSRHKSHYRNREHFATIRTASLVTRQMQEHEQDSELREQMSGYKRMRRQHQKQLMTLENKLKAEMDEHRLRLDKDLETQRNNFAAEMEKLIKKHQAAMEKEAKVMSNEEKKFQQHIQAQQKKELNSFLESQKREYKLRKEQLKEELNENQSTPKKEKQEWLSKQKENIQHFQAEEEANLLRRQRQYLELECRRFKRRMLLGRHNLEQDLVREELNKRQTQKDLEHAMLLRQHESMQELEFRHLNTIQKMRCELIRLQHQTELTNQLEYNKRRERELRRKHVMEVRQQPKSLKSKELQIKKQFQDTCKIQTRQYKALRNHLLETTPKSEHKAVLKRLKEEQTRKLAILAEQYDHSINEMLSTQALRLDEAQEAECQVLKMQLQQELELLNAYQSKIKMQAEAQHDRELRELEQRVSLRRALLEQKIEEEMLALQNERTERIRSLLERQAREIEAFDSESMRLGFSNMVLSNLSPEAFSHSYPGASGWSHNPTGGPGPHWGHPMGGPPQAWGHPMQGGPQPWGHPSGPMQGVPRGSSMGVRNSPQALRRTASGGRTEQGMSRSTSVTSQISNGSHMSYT
Description: Inhibition of TAOK1 (unknown origin) assessed as residual activity at 1000 nM by KINOMEscan analysis relative to control.

Sequence of Mitogen-activated protein kinase kinase kinase 9 (Homo sapiens) (P80192 whole entry, looked up): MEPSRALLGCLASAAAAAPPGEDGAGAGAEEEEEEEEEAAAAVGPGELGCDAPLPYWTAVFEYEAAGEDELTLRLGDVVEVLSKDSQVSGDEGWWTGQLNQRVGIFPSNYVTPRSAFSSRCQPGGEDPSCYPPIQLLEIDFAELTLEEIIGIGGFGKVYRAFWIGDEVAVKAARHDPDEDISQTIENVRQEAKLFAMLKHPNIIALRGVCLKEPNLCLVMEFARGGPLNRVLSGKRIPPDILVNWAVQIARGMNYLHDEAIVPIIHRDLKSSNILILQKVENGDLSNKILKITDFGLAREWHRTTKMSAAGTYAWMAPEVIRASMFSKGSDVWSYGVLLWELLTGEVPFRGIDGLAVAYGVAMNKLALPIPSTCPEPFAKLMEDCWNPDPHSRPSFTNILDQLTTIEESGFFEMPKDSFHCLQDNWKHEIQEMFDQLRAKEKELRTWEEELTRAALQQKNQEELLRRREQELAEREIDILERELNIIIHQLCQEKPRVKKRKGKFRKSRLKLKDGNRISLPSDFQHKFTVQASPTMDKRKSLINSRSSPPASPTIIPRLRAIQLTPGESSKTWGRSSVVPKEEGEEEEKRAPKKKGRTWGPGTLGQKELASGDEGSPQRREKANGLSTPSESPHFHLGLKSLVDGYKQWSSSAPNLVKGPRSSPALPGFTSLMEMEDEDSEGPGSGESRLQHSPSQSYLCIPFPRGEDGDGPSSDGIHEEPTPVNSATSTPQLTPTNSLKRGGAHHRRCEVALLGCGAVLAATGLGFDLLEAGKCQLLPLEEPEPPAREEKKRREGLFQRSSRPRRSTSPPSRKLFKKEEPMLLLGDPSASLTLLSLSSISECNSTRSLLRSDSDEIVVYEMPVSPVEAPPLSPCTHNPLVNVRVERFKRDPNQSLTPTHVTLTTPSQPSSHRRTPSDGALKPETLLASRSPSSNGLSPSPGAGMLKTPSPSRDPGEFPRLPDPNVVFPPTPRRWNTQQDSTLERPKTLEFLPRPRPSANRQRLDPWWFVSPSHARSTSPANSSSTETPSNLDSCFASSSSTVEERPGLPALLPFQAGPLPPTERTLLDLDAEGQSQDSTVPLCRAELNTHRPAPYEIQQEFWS
Sequence of LIM domain kinase 1 (Homo sapiens) (P53667 whole entry, looked up, the tested form may be a part): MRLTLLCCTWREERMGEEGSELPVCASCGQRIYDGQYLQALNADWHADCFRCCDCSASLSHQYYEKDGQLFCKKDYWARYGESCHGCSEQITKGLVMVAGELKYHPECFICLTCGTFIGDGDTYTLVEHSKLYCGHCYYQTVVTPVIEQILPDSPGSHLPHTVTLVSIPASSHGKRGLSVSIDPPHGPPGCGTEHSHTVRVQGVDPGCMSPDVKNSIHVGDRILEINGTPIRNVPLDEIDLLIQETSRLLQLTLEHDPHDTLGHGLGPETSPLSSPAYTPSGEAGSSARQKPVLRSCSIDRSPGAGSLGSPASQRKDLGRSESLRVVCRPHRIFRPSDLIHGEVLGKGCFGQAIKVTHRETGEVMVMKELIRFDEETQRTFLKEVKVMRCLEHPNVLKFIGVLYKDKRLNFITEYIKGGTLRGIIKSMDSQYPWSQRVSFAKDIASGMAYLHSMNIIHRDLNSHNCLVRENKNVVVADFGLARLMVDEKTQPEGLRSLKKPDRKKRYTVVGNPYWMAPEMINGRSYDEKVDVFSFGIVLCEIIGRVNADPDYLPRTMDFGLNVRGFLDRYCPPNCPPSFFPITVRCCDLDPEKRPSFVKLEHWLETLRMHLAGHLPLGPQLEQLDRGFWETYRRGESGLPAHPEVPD

In the case of `COc1cc2ncnc(N[C@H](C)c3cccc4ccccc34)c2cc1OC`, the Activity was 100% in assay [1]; 100% in [2]; 73% in [3]; 100% in assay [4]; 88% in assay [5]; 100% in assay [6]. The Activity in [7] is 100%; in assay [8], 100%; in assay [9], 89%.
As for `COc1cc2nc(C)nc(N[C@H](C)c3cccc(-c4cn[nH]c4)c3)c2cc1OC`, the Activity was determined as 99% in [1]; 100% in assay [2]; 100% in [3]; 84% in assay [4]; 95% in assay [5]; 78% in assay [6]. Further, the Activity in [7] came out at 38%; in [8], 100%; in [9], 100%.
